21 molecules from patent publication US11767322B2 (BRISTOL-MYERS SQUIBB COMPANY, priority 2020, dated 2023) can be followed below.

Where two headings read alike, the source gives them in different places.

For experiment [1], the system named is MLKL phosphorylation in HT29-L23 human colorectal adenocarcinoma cells. As to the kind of experiment: MLKL phosphorylation high-content assay. Format: cell-based.
In experiment [2] the target is T1, His-GST-TVMV-hRIPK1(1-324) (Homo sapiens, UniProt Q13546).
T1 construct: The coding region of human RIPK1(1-324) flanked by NdeI site at 5′ end; made in house; host or cells: Spodoptera frugiperda Sf9 insect cells (baculovirus, Bac-to-Bac)
T1 sequence (Q13546 1-324): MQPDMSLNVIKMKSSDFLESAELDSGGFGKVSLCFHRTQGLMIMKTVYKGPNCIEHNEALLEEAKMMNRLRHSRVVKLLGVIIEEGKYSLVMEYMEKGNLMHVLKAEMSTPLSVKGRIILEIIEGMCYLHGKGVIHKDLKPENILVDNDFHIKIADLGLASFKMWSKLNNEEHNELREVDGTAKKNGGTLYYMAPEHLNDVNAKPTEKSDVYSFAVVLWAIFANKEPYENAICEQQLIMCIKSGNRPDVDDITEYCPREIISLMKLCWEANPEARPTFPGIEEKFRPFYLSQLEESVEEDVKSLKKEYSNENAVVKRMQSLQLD
Put plainly: biochemical. Format: binding.

In experiment [3] the target is GST-tagged PIK3Cδ in complex with PIK3R1 (Homo sapiens, UniProt O00329). As to the kind of experiment: PI3Kδ HTRF binding assay. To be noted: HTRF probe displacement, 1 h at rt; read-out: PIK3CD IC50. In general terms: Time-resolved FRET reads energy transfer from a long-lived donor to a nearby acceptor.
Where [4] appears, read: read-out: pMLKL IC50, HT29-L23 cells, necroptosis induced with TNFα, SMAC mimetic and Z-VAD, 6 h, maximal inhibition defined by Nec1s.
Setting [5] is: HTRF probe displacement, 1 h at rt, read-out: RIPK1 IC50.
[6] abbreviates: Homo sapiens, 6 h, read-out: pMLKL IC50, HT29-L23 cells, necroptosis induced with TNFα, SMAC mimetic and Z-VAD, 6 h, maximal inhibition defined by Nec1s.

GST-tagged PIK3Cδ in complex with PIK3R1, sequence (O00329 whole entry): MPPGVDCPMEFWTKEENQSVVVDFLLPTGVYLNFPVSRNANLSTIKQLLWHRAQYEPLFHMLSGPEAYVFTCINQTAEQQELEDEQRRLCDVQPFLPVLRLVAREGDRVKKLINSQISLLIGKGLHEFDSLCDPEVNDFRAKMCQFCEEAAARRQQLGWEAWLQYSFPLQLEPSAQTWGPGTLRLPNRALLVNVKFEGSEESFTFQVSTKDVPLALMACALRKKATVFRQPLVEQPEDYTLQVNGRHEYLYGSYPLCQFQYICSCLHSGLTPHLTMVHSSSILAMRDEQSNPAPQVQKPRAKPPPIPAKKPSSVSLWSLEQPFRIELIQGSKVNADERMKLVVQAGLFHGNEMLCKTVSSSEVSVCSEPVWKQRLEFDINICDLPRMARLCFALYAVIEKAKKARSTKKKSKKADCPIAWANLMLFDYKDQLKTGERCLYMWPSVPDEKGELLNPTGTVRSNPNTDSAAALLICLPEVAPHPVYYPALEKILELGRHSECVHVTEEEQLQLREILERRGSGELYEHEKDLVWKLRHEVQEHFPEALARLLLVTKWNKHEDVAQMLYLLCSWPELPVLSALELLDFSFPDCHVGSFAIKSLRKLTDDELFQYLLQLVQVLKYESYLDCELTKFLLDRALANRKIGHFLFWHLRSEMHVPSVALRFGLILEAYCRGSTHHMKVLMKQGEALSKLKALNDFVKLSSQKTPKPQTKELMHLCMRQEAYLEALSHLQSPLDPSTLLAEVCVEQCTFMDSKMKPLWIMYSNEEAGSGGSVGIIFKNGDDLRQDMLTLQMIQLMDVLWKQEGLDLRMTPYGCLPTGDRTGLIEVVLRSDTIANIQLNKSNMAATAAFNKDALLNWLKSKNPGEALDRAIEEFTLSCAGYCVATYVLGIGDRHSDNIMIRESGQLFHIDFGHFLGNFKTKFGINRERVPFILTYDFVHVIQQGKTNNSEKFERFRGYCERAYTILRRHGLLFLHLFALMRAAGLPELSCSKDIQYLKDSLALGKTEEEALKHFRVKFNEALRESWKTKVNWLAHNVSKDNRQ
GST-tagged PIK3Cδ in complex with PIK3R1, sequence (P27986 whole entry partner): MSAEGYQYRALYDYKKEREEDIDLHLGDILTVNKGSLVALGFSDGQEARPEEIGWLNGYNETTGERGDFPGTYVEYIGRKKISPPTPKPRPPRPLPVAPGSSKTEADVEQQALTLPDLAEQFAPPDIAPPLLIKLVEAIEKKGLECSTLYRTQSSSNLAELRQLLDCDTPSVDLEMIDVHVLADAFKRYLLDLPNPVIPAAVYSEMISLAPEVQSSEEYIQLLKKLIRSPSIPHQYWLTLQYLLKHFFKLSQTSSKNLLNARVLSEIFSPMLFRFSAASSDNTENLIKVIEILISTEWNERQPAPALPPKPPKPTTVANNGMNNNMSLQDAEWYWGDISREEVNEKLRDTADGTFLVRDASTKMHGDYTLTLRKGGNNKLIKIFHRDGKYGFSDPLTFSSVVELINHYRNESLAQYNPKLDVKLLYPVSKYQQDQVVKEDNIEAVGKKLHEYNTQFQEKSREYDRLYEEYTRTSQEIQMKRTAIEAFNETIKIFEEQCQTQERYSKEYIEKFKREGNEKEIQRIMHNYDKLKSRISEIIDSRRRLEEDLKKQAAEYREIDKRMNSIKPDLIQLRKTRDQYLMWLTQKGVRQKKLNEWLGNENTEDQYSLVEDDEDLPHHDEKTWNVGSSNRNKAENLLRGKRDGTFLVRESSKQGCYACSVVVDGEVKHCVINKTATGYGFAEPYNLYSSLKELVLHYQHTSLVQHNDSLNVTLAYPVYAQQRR

In general, IC50 refers to the concentration that inhibits the measured activity by half. For the molecule `Cc1ccc(-c2ccn3nc(N)nc3c2)c(F)c1C(=O)NCCC(O)c1ccc(C(F)(F)F)cc1` (single isomer, unassigned) [Example 57, 3-(2-amino-[1,2,4]triazolo[1,5-a]pyridin-7-yl)-2-fluoro-N-(3-hydroxy-3-(4-(trifluoromethyl)phenyl)propyl)-6-methylbenzamide], the IC50 was 1.9 nM in experiment [1] (setting [4]), 3.1 nM in experiment [2] (setting [5]) and greater than 15000 nM in experiment [3].
On to `Cc1ccc(-c2ccn3nc(N)nc3c2)c(F)c1C(=O)NCCC(O)c1ccc(F)cc1` (single isomer, unassigned) [Example 50, 3-(2-amino-[1,2,4]triazolo[1,5-a]pyridin-7-yl)-2-fluoro-N-(3-(4-fluorophenyl)-3-hydroxypropyl)-6-methylbenzamide], for which the results for the IC50 in experiment [1] (setting [6]), in experiment [2] (setting [5]) and in experiment [3] were 1.9 nM, 0.3 nM and greater than 15000 nM, respectively.
`Cc1ccc(-c2ccn3nc(N)nc3c2)c(F)c1C(=O)NCCC(O)c1ccc(Cl)cc1F` (single isomer, unassigned) [Example 69, 3-(2-amino-[1,2,4]triazolo[1,5-a]pyridin-7-yl)-N-(3-(4-chloro-2-fluorophenyl)-3-hydroxypropyl)-2-fluoro-6-methylbenzamide]: the IC50 was 0.4 nM in experiment [1] (setting [4]), 1.4 nM in experiment [2] (setting [5]) and greater than 15000 nM in experiment [3].
Regarding `Cc1ccc(-c2ccn3nc(N)nc3c2)c(F)c1C(=O)NCCC(c1ccccc1)C(F)(F)F` (single isomer, unassigned) [Example 13, 3-(2-amino-[1,2,4]triazolo[1,5-a]pyridin-7-yl)-2-fluoro-6-methyl-N-(4,4,4-trifluoro-3-phenylbutyl)benzamide], the IC50 in experiment [1] (setting [4]) is 27 nM; in experiment [2] (setting [5]), 0.6 nM; in experiment [3] it was greater than 15000 nM.
As for `CCc1ccc(-c2ccn3nc(N)nc3c2)cc1C(=O)NCC[C@H](O)c1ccc(Cl)cc1` [Example 150, (S)-5-(2-amino-[1,2,4]triazolo[1,5-a]pyridin-7-yl)-N-(3-(4-chlorophenyl)-3-hydroxypropyl)-2-ethylbenzamide], the concentration for half-maximal inhibition (IC50) in experiment [1] (setting [6]) is 5.7 nM; in experiment [2] (setting [5]), 1.8 nM; in experiment [3] it was greater than 15000 nM.
As to `Nc1nc2cc(-c3ccc(Cl)c(C(=O)NC[C@H](F)[C@H](O)c4ccc(F)cc4)c3F)ccn2n1` (single isomer, unassigned) [Example 299], the IC50 stood at 37 nM in experiment [1] (setting [6]), 16 nM in experiment [2] (setting [5]) and 10000 nM in experiment [3].
As for `Cc1cc(F)c(-c2ccn3nc(N)nc3c2)cc1C(=O)NCC(F)(F)C(O)c1ccc(F)cc1` (single isomer, unassigned) [Example 98, 5-(2-amino-[1,2,4]triazolo[1,5-a]pyridin-7-yl)-N-(2,2-difluoro-3-(4-fluorophenyl)-3-hydroxypropyl)-4-fluoro-2-methylbenzamide], the IC50 in experiment [1] (setting [4]) is 1.2 nM; in experiment [2] (setting [5]), 2.8 nM; in experiment [3], greater than 15000 nM.
Regarding `Cc1c(C(=O)NCC[C@H](O)c2ccc(Cl)cc2)cc(-c2ccn3nc(N)nc3c2)c(F)c1F` [Example 99, (S)-5-(2-amino-[1,2,4]triazolo[1,5-a]pyridin-7-yl)-N-(3-(4-chlorophenyl)-3-hydroxypropyl)-3,4-difluoro-2-methylbenzamide], the figures for the IC50 in experiment [1] (setting [6]), in experiment [2] (setting [5]) and in experiment [3] were 2.9 nM, 5.5 nM and greater than 15000 nM, respectively.
`Cc1ccc(-c2ccn3nc(N)nc3c2)c(F)c1C(=O)NCCC(c1ccccc1)C(F)(F)F` (racemic) [Example 11, 3-(2-amino-[1,2,4]triazolo[1,5-a]pyridin-7-yl)-2-fluoro-6-methyl-N-(4,4,4-trifluoro-3-phenylbutyl)benzamide]: the figures for the IC50 in experiment [1] (setting [6]), in experiment [2] (setting [5]) and in experiment [3] were 5.9 nM, 1.2 nM and greater than 15000 nM, respectively.
Regarding `[2H]C([2H])(CC([2H])(O)c1ccc(Cl)cc1)NC(=O)c1c(C)ccc(-c2ccn3nc(N)nc3c2)c1F` (racemic) [Example 14, 3-(2-amino-[1,2,4]triazolo[1,5-a]pyridin-7-yl)-N-(3-(4-chlorophenyl)-3-hydroxypropyl-1,1,3-d3)-2-fluoro-6-methylbenzamide], the values for the IC50 in experiment [1] (setting [6]), in experiment [2] (setting [5]) and in experiment [3] were 1.1 nM, 1.1 nM and greater than 15000 nM, respectively.
Take `Cc1ccc(-c2ccn3nc(N)nc3c2)c(F)c1C(=O)NCCC(O)C1CCCC1` (centres unmarked) [Example 247, 3-(2-amino-[1,2,4]triazolo[1,5-a]pyridin-7-yl)-N-(3-cyclopentyl-3-hydroxypropyl)-2-fluoro-6-methylbenzamide]: the IC50 in experiment [1] (setting [6]) was 21 nM; in experiment [2] (setting [5]) it was 13 nM; in experiment [3], greater than 15000 nM.
Consider `Cc1ccc(-c2ccn3nc(N)nc3c2)c(F)c1C(=O)NC(CF)CC(O)c1ccc(F)cc1` (single isomer, unassigned) [Example 27, 3-(2-amino-[1,2,4]triazolo[1,5-a]pyridin-7-yl)-2-fluoro-N-(1-fluoro-4-(4-fluorophenyl)-4-hydroxybutan-2-yl)-6-methylbenzamide], for which the IC50 in experiment [1] (setting [4]) was 198 nM; in experiment [2] (setting [5]) it was 60 nM; in experiment [3], greater than 15000 nM.
As for `Cc1cc(F)c(-c2ccn3nc(N)nc3c2)cc1C(=O)NCC(F)(F)C(O)c1ccc(F)cc1` (single isomer, unassigned) [Example 97, 5-(2-amino-[1,2,4]triazolo[1,5-a]pyridin-7-yl)-N-(2,2-difluoro-3-(4-fluorophenyl)-3-hydroxypropyl)-4-fluoro-2-methylbenzamide], the IC50 in experiment [1] (setting [4]) is 6.4 nM; in experiment [2] (setting [5]), 1.3 nM; in experiment [3], greater than 15000 nM.
Take `CCc1ccc(-c2ccn3nc(N)nc3c2)c(F)c1C(=O)NCC[C@H](O)c1ccc(Cl)cc1` [Example 155, (S)-3-(2-amino-[1,2,4]triazolo[1,5-a]pyridin-7-yl)-N-(3-(4-chlorophenyl)-3-hydroxypropyl)-6-ethyl-2-fluorobenzamide]: the IC50 is 0.6 nM in experiment [1] (setting [6]), 2.7 nM in experiment [2] (setting [5]) and greater than 15000 nM in experiment [3].
`Cc1ccc(-c2ccn3nc(N)nc3c2)c(F)c1C(=O)NCCC(O)C1CCCC1` (centres unmarked) [Example 248, 3-(2-amino-[1,2,4]triazolo[1,5-a]pyridin-7-yl)-N-(3-cyclopentyl-3-hydroxypropyl)-2-fluoro-6-methylbenzamide]: the IC50 in experiment [1] (setting [4]) is 20 nM; in experiment [2] (setting [5]) it was 22 nM; in experiment [3], greater than 15000 nM.
For `Cc1cc(F)c(-c2ccn3nc(N)nc3c2)cc1C(=O)NCCC(O)c1ccc(F)cc1` (single isomer, unassigned) [Example 10, 5-(2-amino-[1,2,4]triazolo[1,5-a]pyridin-7-yl)-4-fluoro-N-(3-(4-fluorophenyl)-3-hydroxypropyl)-2-methylbenzamide], the IC50 is 2.5 nM in experiment [1] (setting [4]); 2.5 nM in experiment [1] (read-out: pMLKL IC50, Table 22, compounds of the present invention); 9.4 nM in experiment [2] (setting [5]); 9.4 nM in experiment [2] (Table 22, compounds of the present invention, read-out: RPIK1 IC50); greater than 15000 nM in experiment [3].
`Cc1ccc(-c2ccn3nc(N)nc3c2)c(F)c1C(=O)NCCC1(c2ccc(F)cc2)CC1` [Example 16, 3-(2-amino-[1,2,4]triazolo[1,5-a]pyridin-7-yl)-2-fluoro-N-(2-(1-(4-fluorophenyl)cyclopropyl)ethyl)-6-methylbenzamide]: the figures for the IC50 in experiment [1] (setting [6]), in experiment [2] (setting [5]) and in experiment [3] were 0.4 nM, 0.7 nM and greater than 15000 nM, respectively.
With `Cc1c(F)cc(-c2ccn3nc(N)nc3c2)cc1C(=O)NCC(F)(F)C(O)c1ccc(F)cc1` (single isomer, unassigned) [Example 231, 5-(2-amino-[1,2,4]triazolo[1,5-a]pyridin-7-yl)-N-(2,2-difluoro-3-(4-fluorophenyl)-3-hydroxypropyl)-3-fluoro-2-methylbenzamide], the IC50 in experiment [1] (setting [4]) is 1.2 nM; in experiment [2] (setting [5]), 2 nM; in experiment [3], greater than 15000 nM.
For `Nc1nc2cc(-c3ccc(Cl)c(C(=O)NCC(F)(F)C(O)c4ccc(Cl)c(F)c4)c3F)ccn2n1` (centres unmarked) [Example 191] the same measures were 1.4 nM, 2.6 nM and greater than 15000 nM.
On to `Cc1ccc(-c2ccn3nc(N)nc3c2)c(F)c1C(=O)NCC(F)(F)C(C)(O)c1ccc(Cl)cc1` (single isomer, unassigned) [Example 222, 3-(2-amino-[1,2,4]triazolo[1,5-a]pyridin-7-yl)-N-(3-(4-chlorophenyl)-2,2-difluoro-3-hydroxybutyl)-2-fluoro-6-methylbenzamide], for which the IC50 in experiment [1] (setting [4]) is 1 nM; in experiment [2] (setting [5]) it was 3.2 nM; in experiment [3] it was greater than 15000 nM.
On to `Cc1ccc(-c2ccn3nc(N)nc3c2)c(F)c1C(=O)NCCC(O)c1ccc(Cl)c(Cl)c1` (single isomer, unassigned) [Example 33, 3-(2-amino-[1,2,4]triazolo[1,5-a]pyridin-7-yl)-N-(3-(3,4-dichlorophenyl)-3-hydroxypropyl)-2-fluoro-6-methylbenzamide], for which the IC50 in experiment [1] (setting [6]) is 0.7 nM; in experiment [2] (setting [5]) it was 1 nM; in experiment [3], greater than 15000 nM.
